Measured values from patent US11466028B2, “Fused 1,4-oxazepines as BET protein degraders” (THE REGENTS OF THE UNIVERSITY OF MICHIGAN, priority 2016, dated 2022).

Assays:
[1] = system: MDA-MB-231; assay: WST-8 cell growth inhibition assay, MDA-MB-231; format: cell-based; conditions: Homo sapiens, WST-8, Table 6
Procedure: (§1) Cpd. Nos. 7 and 18 were tested in various triple-negative breast cancer cell lines using the WST-8 cell growth assay.

[2] = system: HBL100; assay: WST-8 cell growth inhibition assay, HBL100; format: cell-based; conditions: Homo sapiens, HBL-100; WST-8, Table 6
Procedure: as §1

[3] = system: MDA-MB-453; assay: WST-8 cell growth inhibition assay, MDA-MB-453; format: cell-based; conditions: Homo sapiens, WST-8, Table 6
Procedure: as §1

[4] = system: MDA-MB-468; assay: WST-8 cell growth inhibition assay, MDA-MB-468; format: cell-based; conditions: Homo sapiens, WST-8, Table 6
Procedure: as §1

[5] = system: MDA-MB-436; assay: WST-8 cell growth inhibition assay, MDA-MB-436; format: cell-based; conditions: Homo sapiens, WST-8, Table 6
Procedure: as §1

[6] = system: MOLM-13; assay: CellTiter-Glo cell growth inhibition, MOLM-13; format: cell-based; conditions: Homo sapiens, MOLM-13, 96 h, 4 days, Table 4, read-out: MOLM-13 IC50
Procedure: (§2) Cell growth inhibitory activity of representative Compounds of the Disclosure was determined using the CellTiter-Glo® Luminescent Cell Viability Assay. Cells were seeded in 384-well white opaque cell culture plates at a density of 2,000 cells/well with serially diluted compounds and incubated at 37° C. in an atmosphere of 95% air and 5% CO2 for 4 days. Cell viability was determined using the CellTiter-Glo® Luminescent Cell Viability Assay Kit (Promega, Madison, Wis.) according to the manufacture's instruction. Briefly, a volume of CellTiter-Glo® Reagent equal to the volume of cell culture medium was added to each well, and then the plates were incubated at room temperature for 10-20 minutes. The luminescent signal was measured using a Tecan Infinite M1000 multimode microplate reader (Tecan, Morrisville, N.C.). The half maximal inhibitory concentration (IC50) was calculated using the GraphPad Prism 5 software (GraphPad Software, La Jolla, Calif.).
(§3) Cpd. Nos. 18 and 19 were tested in various leukemia cell lines using the CellTiter-Glo® Luminescent Cell Viability Assay as described in Example 35.

[7] = system: RS4;11 xenograph tumors; assay: RS4;11 xenograft model; format: in vivo, SCID mice; conditions: for tumor regression in RS4;11 xenograph tumors: SCID mice
Procedure: Cpd. Nos. 7 and 11 were dissolved in 10% PCP [10% PEG400 (Sigma), 3% Cremophor (Sigma), and 87% PBS (Gibco)]. The pH of the drug solutions were checked before use and adjusted with 0.5N NaOH to be between pH 6.5 and 8.0 for IV (intravenous) administration.
RS4;11 cells were maintained at 37° C., 95% air, 5% carbon dioxide in Improved MEM (Richter's Mod.) supplemented with 10% Fetal Bovine Serum, 100 units/ml of penicillin and 100 units/ml of streptomycin (GIBCO™, Invitrogen Corp.) and passaged twice weekly.
Tumor cells for xenografts were harvested with Trypsin (0.05%)-EDTA (0.53 mM) (GIBCO™, Invitrogen Corp.), growth medium added and cells placed on ice. Cells were washed once with 1×PBS (GIBCO™, Invitrogen Corp.) and re-suspended in PBS. After washing in PBS, cells were re-suspended in an ice cold mixture of 1:1 PBS and Matrigel (BD Biosciences, Invitrogen Corp.) for a final Matrigel protein concentration of 5 mg/ml. Cells at 5×10^6 cells in 0.1 ml were injected subcutaneously (s.c.) into the flank region of each mouse using a 25 gauge needle. All tumors were inoculated into SCID mice (strain:236) C.B-17 SCID, Charles River.
The size of tumors growing in the mice was measured in two dimensions using calipers. Tumor volume (mm^3)═(A×B^2)/2 where A and B are the tumor length and width (in mm), respectively. During treatment, tumor volume and body weight were measured three times a week. After the treatment was stopped, tumor volume and body weight was measured at least once a week.
Tumors were not allowed to exceed 10% of the animals total body weight. If an animal had two or more tumors the total weight of all tumors were not allowed to exceed 10% of the animal's total body weight. At the end of the experimental period or when tumor size approached 10% of the total body weight, the animal was euthanized.
Before treatment began, tumors were allowed to grow to 100-200 mm^3 in volume, at which point the blood vessel supplies to the tumor should have been well established. Mice with tumors within acceptable size range were randomized into treatment groups of seven mice. Cpd. Nos. 7 and 11 were given i.v. at 10 mg/kg at days 1,3, and 5 per week for two weeks. The Control group received vehicle alone. Cpd. Nos. 16, 18, 22 and 48 were given i.v. at 5 mg/kg at days 1, 3, and 5 per week for two weeks. The Control group received vehicle alone.
(§4) Representative Compounds of the Disclosure were tested in the RS4;11 and other xenograph models using similar techniques. […] No. 22 in the MDA-MB-231 TNBC model.

[8] = system: MDA-MB-474; assay: WST-8 cell growth inhibition assay, MDA-MB-474; format: cell-based; conditions: WST-8, Table 6
Procedure: as §1

[9] = system: MDA-MB-231; assay: CellTiter-Glo cell growth inhibition, MDA-MB-231; format: cell-based; conditions: Homo sapiens, MDA-MB-231, 96 h, 4 days, Table 4
Procedure: as §2

[10] = system: MDA-MB-157; assay: WST-8 cell growth inhibition assay, MDA-MB-157; format: cell-based; conditions: Homo sapiens, WST-8, Table 6
Procedure: as §1

[11] = system: RS4;11; assay: CellTiter-Glo cell growth inhibition, RS4;11; format: cell-based; conditions: Homo sapiens, RS4-11, 96 h, 4 days, Table 4, read-out: RS-4, 11 IC50
Procedure: as §2, §3

[12] = system: WHIM24 breast cancer PDX; assay: WHIM24 breast cancer PDX model; format: in vivo; conditions: FIG. 10
Procedure: as §4

[13] = system: MDA-MB-231 TNBC; assay: MDA-MB-231 TNBC model; format: in vivo; conditions: FIG. 12
Procedure: as §4

[14] = system: MV4;11 xenograph; assay: MV4;11 xenograph model; format: in vivo
Procedure: as §4

[15] = system: MDA-MB-468 TNBC; assay: MDA-MB-468 TNBC model; format: in vivo; conditions: FIG. 11
Procedure: as §4

| SMILES | IC50 [1] [nM] | IC50 [2] [nM] | IC50 [3] [nM] | IC50 [4] [nM] | IC50 [5] [nM] | IC50 [6] [nM] | tumor regression in RS4;11 xenograph tumors ([7]; i.v. 10 mg/kg at days 1, 3, 5 per week for two weeks, FIG. 3) | IC50 [8] [nM] | IC50 [9] [nM] | IC50 [10] [nM] | IC50 [11] [nM] | tumor regression in the WHIM24 breast cancer PDX model [12] | tumor regression in the MDA-MB-231 TNBC model [13] | tumor regression in RS4;11 xenograph tumors ([7]; i.v. 5 mg/kg at days 1, 3, 5 per week for two weeks, FIG. 4) | tumor regression in the RS4;11 xenograph model ([7]; every other day dosing schedule, FIG. 6) | tumor regression in the RS4;11 xenograph model ([7]; single dose or weekly dosing schedule, FIG. 7) | tumor regression in the MV4;11 xenograph model ([14]; FIG. 8) | tumor regression in the MV4;11 xenograph model ([14]; FIG. 9) | tumor regression in the MDA-MB-468 TNBC model [15] |
| --- | --- | --- | --- | --- | --- | --- | --- | --- | --- | --- | --- | --- | --- | --- | --- | --- | --- | --- | --- |
| Cc1nnc2n1-c1sc(C#Cc3cnn(CCCCNc4cccc5c4C(=O)N(C4CCC(=O)NC4=O)C5=O)c3)c(Cc3ccccc3)c1CO[C@H]2C (stereo partly drawn) [Cpd. No. 7, 4-((4-(4-(((S)-3-benzyl-6,9-dimethyl-4H,6H-thieno[2,3-e][1,2,4]triazolo[3,4-c][1,4]oxazepin-2-yl)ethynyl)-1H-pyrazol-1-yl)butyl)amino)-2-(2,6-dioxopiperidin-3-yl)isoindoline-1,3-dione] | 1.2 ± 0.13 | 1.7 ± 0.15 | 1.02 ± 0.03 | 2.46 ± 0.07 | 2.24 ± 0.3 | 0.7 | induce tumor regression | 1.09 ± 0.06 | 0.8 | 0.29 ± 0.02 | 0.03 |  |  |  |  |  |  |  |  |
| Cc1nnc2n1-c1sc(C#Cc3cnn(CCCC#Cc4cccc5c4CN(C4CCC(=O)NC4=O)C5=O)c3)c(Cc3ccccc3)c1COC2 (stereo not shown) [Cpd. No. 22, 3-(4-(5-(4-((3-benzyl-9-methyl-4H,6H-thieno[2,3-e][1,2,4]triazolo[3,4-c][1,4]oxazepin-2-yl)ethynyl)-1H-pyrazol-1-yl)pent-1-yn-1-yl)-1-oxoisoindolin-2-yl)piperidine-2,6-dione] |  |  |  |  |  | 0.85 |  |  | < 0.015 |  | 0.11 | induces tumor regression | induces tumor regression | induce tumor regression | induces tumor regression | induces tumor regression | induces tumor regression | induce tumor regression | induces tumor regression |
